Experimental findings from patent publication US20240239801A1, “PYRIMIDO[5,4,D]PYRIMIDINE COMPOUNDS, COMPOSITIONS COMPRISING THEM AND USES THEREOF” (Université de Montréal, priority 2021, published 2024) are described below.

Like-named read-outs stand apart in the source and are kept apart here.

One assay concerns the target T1, ARAF (Homo sapiens, UniProt P10398).
T1 sequence (P10398 310-570 limits assumed): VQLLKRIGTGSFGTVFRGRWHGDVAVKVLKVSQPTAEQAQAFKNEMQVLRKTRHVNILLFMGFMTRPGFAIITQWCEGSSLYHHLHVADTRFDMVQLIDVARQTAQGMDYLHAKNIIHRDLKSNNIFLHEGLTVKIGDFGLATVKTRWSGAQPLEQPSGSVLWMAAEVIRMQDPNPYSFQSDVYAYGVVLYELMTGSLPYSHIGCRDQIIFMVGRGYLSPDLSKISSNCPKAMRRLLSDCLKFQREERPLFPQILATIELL
Briefly: ARAF kinase activity assay (AlphaLISA p-MEK detection). The class given is biochemical. The following applies: Table A. The procedure: Compound preparation: solid samples of each substances in 1dram vials were suspended in DMSO (Fisher Scientific) at a stock concentration of 20 mM. Stocks were kept at −20° C. and protected from light. If solubility of the compound at 20 mM appeared to be an issue, the initial concentration of the DMSO stock was changed to 10 mM or 5 mM.
In vitro enzymatic reactions were used for evaluating compounds intrinsic activity against BRAF, CRAF and ARAF. For BRAF and CRAF, 0.375 nM of purified GST-tagged kinases (cat #B4062-10UG and cat #R1656-10UG respectively from Millipore Sigma) were incubated with 75 nM of kinase-dead MEK1 substrate (cat #40075; BPS Bioscience) in the presence of 10 μM of Ultrapure ATP (cat #V9102; Promega; part V915A) with and without the test compound in a buffer containing 50 mM HEPES pH 7.5, 10 mM MgCl2, 1 mM EDTA, 0.01% Brij-35 and 2 mM DTT. Separate reactions were performed with the MEK1 substrate and ATP as a blank control. ARAF, kinase reactions were rigorously the same with the exception that kinase concentration was raised to 3.75 nM (cat #1768-0000-1; Reaction Biology).
For compound treatment, 5 μL/well of test substance solution are placed in a 384-well proxyplate (Perkin Elmer) and mixed with 2× concentrated kinase reactions. The dilution series is selected so that nine concentrations cover a range from 100 nM to 0.01 nM. […] The final concentration of DMSO in the assay is set at 0.05%.
ARAF kinase reactions were carried out for a total of 2 hours at 30° C. and then stopped by addition of EDTA at a final concentration of 40 mM. Reactions were then detected using the AlphaLISA® SureFire® Ultra™ p-MEK ½ (Ser218/222) (PerkinElmer) kit. Reactions were performed with 5 μL of kinase reaction according to the manufacturer's specifications in 384-well proxyplates (Perkin Elmer) followed by overnight incubation of the reactions at room temperature in a humidified chamber. After completion of the detection reactions, the signals were recorded on a Synergy Neo2 plate reader (Biotek) equipped with AlphaLISA® filters. The effect of each compound dilution on the pMEK signal generated by ARAF reactions was expressed in % inhibition and calculated as follows. An internal 100% inhibition control (average of luminescence in kinase reactions comprising kinase dead MEK1 substrate alone) was included in each plate to measure of pMEK background and was subtracted from each data point. The average of DMSO (vehicle) controls (set as 0% inhibition) was also established and used to calculate % inhibition:
IC50 values were obtained by plotting the kinase inhibition values and fitting the dose-activity curves using a log(agonist) versus response−variable slope (four parameters) function using either GraphPadPrism (V7.0) or Dotmatics Screening Ultra platform. Standards included in the ARAF kinase assay were Belvarafenib (MedChem Express cat #HY-109080; CAS #1446113-23-0), LXH254 (MedChem Express cat #HY-112089; CAS #1800398-38-2) and BGB283 (cat #HY-18957; CAS #1446090-79-4).

A further assay relates to SW480 pERK. The assay can be described thus: Phospho-ERK inhibition, AlphaLISA SureFire Ultra p-ERK 1/2. The class given is cell-based, human. Conditions: for IC50: 1 h treatment; for SW480 (Ymin %): lowest value of the pERK IC50 curve. In a few lines:
(§1)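 IC50 derived by four-parameter fitting of % inhibition, with DMSO as 0% and 1 μM trametinib subtracted as background. Signal is AlphaLISA p-ERK1/2 (Thr202/Tyr204) in lysates of overnight-seeded cells (RPMI-1640, 5% FBS) treated 1 h with ten concentrations from 30 or 10 μM to 0.33 nM, 0.5% DMSO.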
(In Alpha technology, singlet oxygen from a donor bead excites a nearby acceptor bead.)

Another assay concerns HCT116 pERK. The assay is described as above. The class given is cell-based, human. Conditions: for HCT116 (Ymin %): lowest value of the pERK IC50 curve; for HCT116 pERK % Ymin (lowest value of the IC50 curve): value in brackets, Ymin above −20% = minimal or no paradoxical induction. In a few lines: as §1
The target of another assay is CRAF (Homo sapiens, UniProt P04049). The assay can be described thus: CRAF kinase activity assay (ADP-Glo). The class given is biochemical. In a few lines: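 CRAF inhibition was measured by ADP-Glo. 0.375 nM purified GST-tagged CRAF was combined with 75 nM kinase-dead MEK1 substrate and 10 μM ATP in 50 mM HEPES pH 7.5, 10 mM MgCl2, 1 mM EDTA, 0.01% Brij-35 and 2 mM DTT, with nine compound concentrations from 100 nM to 0.01 nM (0.05% DMSO), in 384-well plates for 2 hours at 30° C. Luminescence was read after adding ADP-Glo and Kinase Detection reagents. IC50 came from four-parameter curve fits.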
Chain of CRAF (P04049 whole entry): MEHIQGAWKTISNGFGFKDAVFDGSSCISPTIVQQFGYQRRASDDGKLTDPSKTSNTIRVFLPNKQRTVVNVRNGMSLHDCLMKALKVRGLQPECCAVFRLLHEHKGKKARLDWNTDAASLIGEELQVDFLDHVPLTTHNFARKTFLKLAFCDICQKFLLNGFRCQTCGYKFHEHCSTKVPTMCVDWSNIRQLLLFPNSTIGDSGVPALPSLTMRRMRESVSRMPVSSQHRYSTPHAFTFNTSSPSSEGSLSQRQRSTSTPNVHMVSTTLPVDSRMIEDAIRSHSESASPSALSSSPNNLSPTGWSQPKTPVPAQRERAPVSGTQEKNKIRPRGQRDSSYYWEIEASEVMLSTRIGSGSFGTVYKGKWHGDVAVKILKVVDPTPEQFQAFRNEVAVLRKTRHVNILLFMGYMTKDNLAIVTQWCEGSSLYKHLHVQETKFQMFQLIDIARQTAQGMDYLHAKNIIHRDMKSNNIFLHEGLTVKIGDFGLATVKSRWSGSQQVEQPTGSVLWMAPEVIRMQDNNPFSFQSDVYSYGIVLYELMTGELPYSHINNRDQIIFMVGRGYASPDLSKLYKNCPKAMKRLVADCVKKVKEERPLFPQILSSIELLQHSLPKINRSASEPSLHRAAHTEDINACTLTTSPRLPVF
(In ADP-Glo the light output rises with the ADP produced.)

Another assay concerns the target T2, BRAF (Homo sapiens, UniProt P15056).
T2 construct: GST; purchased Millipore Sigma B4062-10UG
Briefly: BRAF kinase activity assay (ADP-Glo). The class given is biochemical. In a few lines: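 GST-tagged BRAF (0.375 nM) was reacted with 75 nM kinase-dead MEK1 and 10 μM ATP for 2 h at 30 °C in HEPES pH 7.5 buffer with MgCl2, EDTA, Brij-35 and DTT. Compounds were tested at nine concentrations from 100 nM to 0.01 nM with 0.05% DMSO final. ADP-Glo luminescence gave % inhibition, and IC50 came from a four-parameter fit.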

[1] abbreviates: Table 3, read-out: SW480 PERK IC50.

T2 sequence (P15056 whole entry): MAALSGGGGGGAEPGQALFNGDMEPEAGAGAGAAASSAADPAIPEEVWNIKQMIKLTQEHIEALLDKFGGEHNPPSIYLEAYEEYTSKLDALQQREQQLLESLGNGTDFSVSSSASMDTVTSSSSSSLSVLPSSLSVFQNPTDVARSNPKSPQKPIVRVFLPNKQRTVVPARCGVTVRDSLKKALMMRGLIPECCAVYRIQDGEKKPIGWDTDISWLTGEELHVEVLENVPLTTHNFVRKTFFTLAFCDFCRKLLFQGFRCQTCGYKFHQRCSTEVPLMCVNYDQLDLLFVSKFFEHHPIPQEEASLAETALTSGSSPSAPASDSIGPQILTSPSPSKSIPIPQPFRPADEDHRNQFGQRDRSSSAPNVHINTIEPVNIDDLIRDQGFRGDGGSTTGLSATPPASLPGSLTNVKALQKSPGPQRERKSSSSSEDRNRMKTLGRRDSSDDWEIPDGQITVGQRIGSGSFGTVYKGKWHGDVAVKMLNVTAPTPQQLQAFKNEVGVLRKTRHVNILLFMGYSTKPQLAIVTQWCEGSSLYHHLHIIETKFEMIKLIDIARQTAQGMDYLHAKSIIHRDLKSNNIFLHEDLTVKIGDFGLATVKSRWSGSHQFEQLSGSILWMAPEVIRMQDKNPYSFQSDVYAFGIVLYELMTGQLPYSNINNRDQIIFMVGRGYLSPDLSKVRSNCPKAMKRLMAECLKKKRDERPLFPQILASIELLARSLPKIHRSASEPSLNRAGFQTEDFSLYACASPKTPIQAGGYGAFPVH

The IC50 is the point on the concentration scale where inhibition reaches its midpoint. As for `O=C1CCc2c(Oc3ccc4c(c3)[C@@H]3[C@H](O4)[C@H]3c3nc4ccc(C(F)(F)F)cc4[nH]3)ccnc2N1` [BGB283, reference compound], the IC50 on ARAF was over 20 nM.

`COc1ccc(S(=O)(=O)Nc2ccc(F)c(Nc3ncnc4cnc(SC)nc34)c2F)cc1` [Example 1]: the IC50 is 1000 to 10000 nM with SW480 pERK (Homo sapiens, SW480, Table 2, read-out: SW480 PERK IC50 (UM)); 10000 to 30000 nM in the assay with HCT116 pERK (Homo sapiens, HCT-116, Table 2, 1 h treatment); over 50 nM at CRAF (Table 2); over 10 nM on BRAF (Table 2). For the same compound, in the assay with SW480 pERK (Table 2), the “SW480 (Ymin %)” value is reported as 6%.

On to `COc1ccc(S(=O)(=O)Nc2ccc(F)c(Nc3ncnc4cnc(N5CC[C@H](F)C5)nc34)c2F)c(C)c1` [Example 57], for which the IC50 in the assay with SW480 pERK (setting [1]) was 1000 to 10000 nM; in the assay with HCT116 pERK (Table 3, 1 h treatment), 1000 to 10000 nM; at CRAF (Table 3) it was over 50 nM; at BRAF (Table 3), over 10 nM. Further, in the assay on SW480 pERK (Table 3), the “SW480 (Ymin %)” value is given as −2%. For the same compound, the “HCT116 (Ymin %)” value in the assay on HCT116 pERK (Table 3) was −2%.

As for `Cc1ncn(-c2ncc3ncnc(Nc4c(F)ccc(NS(=O)(=O)c5ccc(Cl)cc5Cl)c4F)c3n2)c1C` [Example 62], the IC50 with SW480 pERK (setting [1]) is 500 to 1000 nM; with HCT116 pERK (Table 3, 1 h treatment), 1000 to 10000 nM; on CRAF (Table 3), 10 to 50 nM; at BRAF (Table 3), 1 to 10 nM. For the same compound, the “SW480 (Ymin %)” value in the assay with SW480 pERK (Table 3) was determined as 2%. The “HCT116 (Ymin %)” value in the assay with HCT116 pERK (Table 3) stood at 11%.

As for `O=S(=O)(Nc1ccc(F)c(Nc2ncnc3cnc(-n4cnc5ccccc54)nc23)c1F)c1ccc(Cl)cc1Cl` [Example 63], the IC50 in the assay on SW480 pERK (setting [1]) was 1000 to 10000 nM; in the assay with HCT116 pERK (Table 3, 1 h treatment) it was 1000 to 10000 nM; on CRAF (Table 3), under 10 nM; at BRAF (Table 3) it was 1 to 10 nM. Also, in the assay with SW480 pERK (Table 3), the “SW480 (Ymin %)” value was 1%. For the same compound, the “HCT116 (Ymin %)” value in the assay with HCT116 pERK (Table 3) is −2%.

As to `O=S(=O)(Nc1ccc(F)c(Nc2ncnc3cnc(-n4cnc5ccccc54)nc23)c1F)c1cccc(Cl)c1Cl` [Example 81], the IC50 in the assay with SW480 pERK (Homo sapiens, SW480, Table 3, read-out: SW480 PERK IC50) is under 500 nM; with HCT116 pERK (Homo sapiens, HCT-116, Table 3, 1 h treatment), under 500 nM; on CRAF (Table 3) it was under 10 nM; at BRAF (Table 3), under 1 nM. In addition, in the assay on SW480 pERK (Table 3), the “SW480 (Ymin %)” value worked out at 3%.

With `Cc1c(F)cccc1S(=O)(=O)Nc1ccc(F)c(Nc2ncnc3cnc(-n4cnc5c(N)cccc54)nc23)c1F` [Example 82], the IC50 in the assay on SW480 pERK (setting [1]) was under 500 nM; with HCT116 pERK (Table 3, 1 h treatment) it was under 500 nM; at CRAF (Table 3) it was under 10 nM; on BRAF (Table 3) it was 1 to 10 nM. Also, the “SW480 (Ymin %)” value with SW480 pERK (Table 3) stood at 3.2%. The “HCT116 (Ymin %)” value in the assay with HCT116 pERK (Table 3) was −10%.

`Cc1c(F)cccc1S(=O)(=O)Nc1ccc(F)c(Nc2ncnc3cnc(-n4cnc5ccccc54)nc23)c1F` [Example 83]: the IC50 in the assay with SW480 pERK (setting [1]) was under 500 nM; in the assay with HCT116 pERK (Table 3, 1 h treatment) it was under 500 nM; at CRAF (Table 3) it was under 10 nM; at BRAF (Table 3) it was 1 to 10 nM. Moreover, the “SW480 (Ymin %)” value with SW480 pERK (Table 3) is given as −2%. The “HCT116 (Ymin %)” value with HCT116 pERK (Table 3) is listed as −10%.

For the compound `COc1ccc(S(=O)(=O)Nc2ccc(F)c(Nc3ncnc4c(N)nc(-n5cnc6ccccc65)nc34)c2F)c(C)c1` [Example 88], the half-inhibitory concentration (IC50) was 1000 to 10000 nM in the assay on SW480 pERK (Homo sapiens, SW480, Table 4, read-out: SW480 PERK IC50); 1000 to 10000 nM in the assay with HCT116 pERK (Homo sapiens, HCT-116, Table 4, 1 h treatment); over 50 nM on CRAF (Table 4); over 10 nM at BRAF (Table 4). Besides, the “SW480 (Ymin %)” value in the assay with SW480 pERK (Table 4) is 2%.

On to `O=S(=O)(Nc1ccc(F)c(Nc2ncnc3cnc(-n4cnc5ccccc54)nc23)c1F)c1scc(Cl)c1Cl` [Example 157], for which the IC50 with HCT116 pERK (Table 3, 1 h treatment) is under 500 nM; at CRAF (Table 3) it was under 10 nM; at BRAF (Table 3), under 1 nM. The “HCT116 (Ymin %)” value in the assay on HCT116 pERK (Table 3) stood at 0%.

As for `CCC1(O)CCN(c2cccc3c2ncn3-c2ncc3ncnc(Nc4c(F)ccc(NS(=O)(=O)c5cccc(Cl)c5C(F)(F)F)c4F)c3n2)CC1` [Example 158], the IC50 in the assay on HCT116 pERK (Table 3, 1 h treatment) is under 500 nM; on CRAF (Table 3), under 10 nM; on BRAF (Table 3), 1 to 10 nM. For the same compound, the “HCT116 (Ymin %)” value with HCT116 pERK (Table 3) is reported as −1%.

Turning to `O=S(=O)(Nc1cc(F)c(F)c(Nc2ncnc3cnc(-n4cnc5ccccc54)nc23)c1F)c1cccc(Cl)c1Cl` [Example 160], the IC50 in the assay with HCT116 pERK (HCT116 cells, pERK) is under 500 nM; at CRAF (CRAF biochemical kinase assay) it was under 10 nM; on BRAF (BRAF biochemical kinase assay), 1 to 10 nM. The “HCT116 pERK % Ymin (lowest value of the IC50 curve)” value in the assay on HCT116 pERK (HCT116 cells) is reported as −9%.

In the case of `O=S(=O)(Nc1cc(F)c(F)c(Nc2ncnc3cnc(-n4nnc5ccccc54)nc23)c1F)c1cccc(Cl)c1Cl` [Example 161], the IC50 in the assay on HCT116 pERK (HCT116 cells, pERK) is 1000 to 10000 nM; at CRAF (CRAF biochemical kinase assay), under 10 nM; on BRAF (BRAF biochemical kinase assay), 1 to 10 nM. In addition, in the assay with HCT116 pERK (HCT116 cells), the “HCT116 pERK % Ymin (lowest value of the IC50 curve)” value is −2.7%.

`Cc1ccc(NC(=O)c2ccnc(C(F)(F)F)c2)cc1-c1cc(OCCO)nc(N2CCOCC2)c1` [LXH254, reference compound]: at ARAF, the IC50 is over 20 nM.
